For the data set, the system named is allergic contact dermatitis response in mice. As to the kind of experiment: Allergic contact dermatitis (TDI) model in mice, mouse ear swelling test. Format: in vivo. The method, then:
The anti-inflammatory and anti-allergic effects of compounds 1a and 1c were assessed in a mouse model of allergic contact dermatitis, a response driven primarily by T helper type 2 (Th2) cells. […] In this model, an allergic dermatitis response is obtained by sensitizing mice to TDI and subsequently challenging them with antigen by topical administration onto the ears. A quantitative assessment of anti-inflammatory and anti-allergic effects of topically or orally administered test compounds is possible by measuring the resulting ear swelling. The advantages of the allergic contact dermatitis model (Zöllner et al., Bioessays 26:693-6 (2004)) are reproducibility and reliability (>90% of BALB/c mice respond to sensitization), a short induction protocol, quantitative assessment by measuring ear thickness, atopic dermatitis-like skin lesions can be induced, and clinically relevant pharmaceuticals, such as corticosteroids, calcineurin-inhibitors and PDE4-inhibitors, are effective in this model.
Female BALB/c-mice were obtained from Charles River (Sulzfeld, Germany) at age 8 weeks. All animals were housed in groups of eight per cage at 22° C. with a 12 h light/dark-cycle, Water and a standard diet (Altromin, Lage/Lippe, Germany) were available ad libitum. All animals were acclimatized for one week before experimental procedures were commenced.
Experimental procedures for BALB/c mice housing, TDI sensitization and challenge, and measurement of ear thickness were performed as previously described (Baumer et al., J Pharm Pharmacol, 55:1107-1114 (2003)) with the following modifications. For active sensitization, 100 μL of 5% (w/v) TDI was administered to the shaved and stripped abdominal epidermis on day one, and for the next three consecutive days, 50 μL of 5% (My) TDI was applied. The allergic reaction was boosted 21 days later by application of 50 μL of 0.5% (w/v) TDI. For the examination of test compound effects, the left ears were used for the TDI challenge (20 μL of 0.5% in acetone) and ear thickness measured 3 h before and 24 h after challenge.
Group size was n=7 mice unless otherwise stated. Test compounds were freshly prepared before administration.
Administration time: to determine optimal time for administration treatment groups were treated orally by gavage with 100 mg/kg of compound 1a or 1c (suspended in 0.5% tylose, 10 mL/kg) 1, 4 or 16 h before topical TDI challenge. One group was treated with 100 mg/kg miltefosine orally, 16 h before challenge (based on available data for optimal administration time for miltefosine) and vehicle treated mice received tylose (10 mL/kg) orally, 4 h before challenge.
Dose-response: two groups of mice were treated orally with compound 1a at 25 mg/kg or 100 mg/kg suspended in 0.5% tylose, 4 h before topical TDI challenge. Vehicle treated mice received 0.5% tylose orally 4 h before challenge. As a positive control, dexamethasone was administered in saline solution at 1 mg/kg or 3 mg/kg, 2 h and 30 min before challenge and 1 h after challenge. The dose and dosing scheme for dexamethasone was based on previous experience showing a maximal effect in this model.
Compound 1a was administered to two groups of mice topically in 20 μl of a 2% or 6% solution in propyleneglycol. The suspension was heated to 60° C. and mixed using a thermomixer (Eppendorf) until it became clear. The solution was applied, 2 h before topical TDI challenge by administration of 10 μl onto each of the inner and outer surfaces of the left ears. A vehicle group (17=5) was treated with propyleneglycol. As a positive control, diflorasone, diacetate was administered at 0.01% (low dose) and 0.05% (high dose) in 20 μl acetone, 2 h before challenge. A basal control group was left untreated.
Mean and standard error of the mean (SEM) were calculated from individual ear edema values. […]

Setting [1] is: administration time study, 100 mg/kg oral, 1 h before TDI challenge.
[2] abbreviates: administration time study, 100 mg/kg oral, 4 h before TDI challenge.
Setting [3] is: administration time study, 100 mg/kg oral, 16 h before TDI challenge.

Values joined by “and” are separate entries in the source; they are usually repeats but may differ in a detail not shown here. Identical values can stand only once. Marks after values point to notes of the source that are not given here.

Turning to `CCCCCCCCCCCCN(C)CC(O)CS(=O)(=O)O` (stereo not shown) [Compound 1c, 2-hydroxy-3-(N-methyldodecylammonio)propanesulfonate], the “Inhibition of mouse ear swelling” value runs as follows: under setting [1], 58.1** %; under setting [2], 68.5*** %; under setting [3], 42.7^§ %.

In the case of `CCCCCCCCCCCCCCCCN(C)CC(O)CS(=O)(=O)O` (stereo not shown) [Compound 1a, 2-hydroxy-3-(N-methylhexadecylammonio)propane-sulfonate], the “Inhibition of mouse ear swelling” value is, setting by setting: under setting [1], 72.6*** %; under setting [2], 73.4*** %; under setting [3], 29.0%; (dose-response study, 25 mg/kg oral, 4 h before TDI challenge) 45% and 44.9*** %; (dose-response study, 100 mg/kg oral, 4 h before TDI challenge) 45% and 44.4*** %; (topical, 20 μl of 2% solution in propyleneglycol, 2 h before TDI challenge) 67.9** %. Also, the “Inhibition of mouse ear swelling” value (topical, 20 μl of 6% solution in propyleneglycol, 2 h before TDI challenge) is reported as 63.1** %. Moreover, the “inhibition relative to the highest dose of dexamethasone” value (dose-response study, oral, versus dexamethasone 3 mg/kg) amounted to 52%. In addition, the “toxicity at the doses used” value (oral 25 or 100 mg/kg) is “no toxicity”. The “reduction of ear swelling compared to vehicle control” value (topical solution at 2% or 6%) is listed as “up to 68%”.

The values above are taken from patent US11453642B2, “Oxygenated amino- or ammonium-containing sulfonic acid, phosphonic acid and carboxylic acid derivatives and their medical use” (GRI BIO, INC., priority 2011, dated 2022).
